Assay: mean ionic activity coefficient (dimensionless); mn = molality of the nth substance listed, in mol/kg
Settings: 298.15 K, 101 kPa, Liquid, ion-selective electrode

[Cs+].[F-] [cesium fluoride (CsF)] + O
Settings	mean ionic activity coefficient
m1 = 0.0043	0.9338
m1 = 0.0085	0.9112
m1 = 0.0128	0.8953
m1 = 0.0172	0.8824
m1 = 0.0215	0.872
m1 = 0.0258	0.863
m1 = 0.0302	0.8551
m1 = 0.0346	0.848
m1 = 0.0391	0.8416
m1 = 0.0437	0.8355
m1 = 0.0523	0.8257
m1 = 0.0608	0.8173
m1 = 0.0698	0.8096
m1 = 0.0787	0.8028
m1 = 0.0875	0.7968
m1 = 0.1003	0.7892
m1 = 0.1138	0.7822
m1 = 0.1268	0.7762
m1 = 0.1455	0.7689
m1 = 0.1632	0.7629
m1 = 0.1817	0.7575
m1 = 0.2045	0.7517
m1 = 0.226	0.7471
m1 = 0.2524	0.7423
m1 = 0.2823	0.7377
m1 = 0.3166	0.7335
m1 = 0.3589	0.7294
m1 = 0.4086	0.7259
m1 = 0.4762	0.7227

[F-].[Rb+] [rubidium fluoride (RbF)] + O
Settings	mean ionic activity coefficient
m1 = 0.0046	0.9305
m1 = 0.0096	0.9047
m1 = 0.014	0.8889
m1 = 0.0187	0.8759
m1 = 0.0232	0.8654
m1 = 0.0275	0.8567
m1 = 0.0321	0.8486
m1 = 0.0367	0.8414
m1 = 0.0411	0.8351
m1 = 0.0506	0.8235
m1 = 0.0596	0.8141
m1 = 0.0685	0.806
m1 = 0.0772	0.799
m1 = 0.0915	0.7891
m1 = 0.1058	0.7806
m1 = 0.1293	0.769
m1 = 0.1517	0.7599
m1 = 0.1747	0.7521
m1 = 0.2107	0.7421
m1 = 0.2467	0.7342
m1 = 0.2819	0.7278
m1 = 0.3349	0.7202
m1 = 0.3859	0.7146
m1 = 0.4584	0.7086
m1 = 0.5332	0.7043
m1 = 0.6214	0.701

From the NIST ThermoML archive (doi:10.1021/je200178b)
